ChEMBL document CHEMBL1671626, “In vitro profiling of ceftaroline against a collection of recent bacterial clinical isolates from across the United States” (2008)
≈ marks a conversion by molar mass, not a printed value.

Assays:
Format in all cases: functional
Escherichia coli [1] = experiment: Antibacterial activity against ceftazidime-nonsusceptible Escherichia coli assessed as resistant isolates by CLSI M7-A7 broth microdilution method
Moraxella catarrhalis = experiment: Antibacterial activity against beta lactamase-positive Moraxella catarrhalis assessed as susceptible isolates by CLSI M7-A7 broth microdilution method
Pasteurella multocida = experiment: Antibacterial activity against Pasteurella multocida by CLSI M7-A7 broth microdilution method
Enterobacter cloacae [2] = experiment: Antibacterial activity against ceftazidime-susceptible Enterobacter cloacae assessed as susceptible isolates by CLSI M7-A7 broth microdilution method
Streptococcus pyogenes [3] = experiment: Antibacterial activity against erythromycin-nonsusceptible Streptococcus pyogenes by CLSI M7-A7 broth microdilution method
Proteus mirabilis [4] = experiment: Antibacterial activity against ceftazidime-susceptible Proteus mirabilis assessed as resistant isolates by CLSI M7-A7 broth microdilution method
Enterobacter cloacae [5] = experiment: Antibacterial activity against ceftazidime-nonsusceptible Enterobacter cloacae by CLSI M7-A7 broth microdilution method
Staphylococcus aureus [6] = experiment: Antibacterial activity against coagulase-negative and oxacillin-resistant Staphylococcus aureus assessed as resistant isolates by CLSI M7-A7 broth microdilution method
Enterobacter cloacae [7] = experiment: Antibacterial activity against ceftazidime-nonsusceptible Enterobacter cloacae assessed as resistant isolates by CLSI M7-A7 broth microdilution method
Streptococcus viridans [8] = experiment: Antibacterial activity against penicillin-susceptible Streptococcus viridans by CLSI M7-A7 broth microdilution method
Morganella morganii = experiment: Antibacterial activity against ceftazidime-susceptible Morganella morganii by CLSI M7-A7 broth microdilution method
Staphylococcus aureus [9] = experiment: Antibacterial activity against methicillin-resistant Staphylococcus aureus assessed as susceptible isolates by CLSI M7-A7 broth microdilution method
Staphylococcus aureus [10] = experiment: Antibacterial activity against coagulase-negative and oxacillin-susceptible Staphylococcus aureus assessed as susceptible isolates by CLSI M7-A7 broth microdilution method
Streptococcus pyogenes [11] = experiment: Antibacterial activity against erythromycin-susceptible Streptococcus pyogenes by CLSI M7-A7 broth microdilution method
Escherichia coli [12] = experiment: Antibacterial activity against ceftazidime-susceptible Escherichia coli by CLSI M7-A7 broth microdilution method
Acinetobacter [13] = experiment: Antibacterial activity against imipenem-susceptible Acinetobacter assessed as susceptible isolates by CLSI M7-A7 broth microdilution method
Klebsiella pneumoniae [14] = experiment: Antibacterial activity against ceftazidime-nonsusceptible Klebsiella pneumoniae assessed as resistant isolates by CLSI M7-A7 broth microdilution method
Enterococcus faecium = experiment: Antibacterial activity against vancomycin-resistant Enterococcus faecium by CLSI M7-A7 broth microdilution method
Enterobacteriaceae [15] = experiment: Antibacterial activity against ceftazidime-nonsusceptible Enterobacteriaceae by CLSI M7-A7 broth microdilution method
Staphylococcus aureus [16] = experiment: Antibacterial activity against methicillin-resistant Staphylococcus aureus by CLSI M7-A7 broth microdilution method
Staphylococcus aureus [17] = experiment: Antibacterial activity against methicillin-resistant Staphylococcus aureus assessed as resistant isolates by CLSI M7-A7 broth microdilution method
Acinetobacter [18] = experiment: Antibacterial activity against imipenem-susceptible Acinetobacter assessed as resistant isolates by CLSI M7-A7 broth microdilution method
Enterobacteriaceae [19] = experiment: Antibacterial activity against ceftazidime-susceptible Enterobacteriaceae by CLSI M7-A7 broth microdilution method
Klebsiella pneumoniae [20] = experiment: Antibacterial activity against ceftazidime-susceptible Klebsiella pneumoniae by CLSI M7-A7 broth microdilution method
Enterobacter cloacae [21] = experiment: Antibacterial activity against ceftazidime-susceptible Enterobacter cloacae by CLSI M7-A7 broth microdilution method
Escherichia coli [22] = experiment: Antibacterial activity against ceftazidime-susceptible Escherichia coli assessed as susceptible isolates by CLSI M7-A7 broth microdilution method
Haemophilus influenzae [23] = experiment: Antibacterial activity against beta lactamase-negative Haemophilus influenzae by CLSI M7-A7 broth microdilution method
Enterobacteriaceae [24] = experiment: Antibacterial activity against ceftazidime-susceptible Enterobacteriaceae assessed as susceptible isolates by CLSI M7-A7 broth microdilution method
Streptococcus viridans [25] = experiment: Antibacterial activity against penicillin-nonsusceptible Streptococcus viridans by CLSI M7-A7 broth microdilution method
Proteus mirabilis [26] = experiment: Antibacterial activity against ceftazidime-susceptible Proteus mirabilis assessed as susceptible isolates by CLSI M7-A7 broth microdilution method
Streptococcus pneumoniae [27] = experiment: Antibacterial activity against penicillin-resistant Streptococcus pneumoniae by CLSI M7-A7 broth microdilution method
Klebsiella pneumoniae [28] = experiment: Antibacterial activity against ceftazidime-susceptible Klebsiella pneumoniae assessed as susceptible isolates by CLSI M7-A7 broth microdilution method
Escherichia coli [29] = experiment: Antibacterial activity against ceftazidime-nonsusceptible Escherichia coli assessed as susceptible isolates by CLSI M7-A7 broth microdilution method
Haemophilus influenzae [30] = experiment: Antibacterial activity against beta lactamase-positive Haemophilus influenzae by CLSI M7-A7 broth microdilution method
Klebsiella pneumoniae [31] = experiment: Antibacterial activity against ceftazidime-nonsusceptible Klebsiella pneumoniae by CLSI M7-A7 broth microdilution method
Streptococcus pneumoniae [32] = experiment: Antibacterial activity against penicillin-susceptible Streptococcus pneumoniae by CLSI M7-A7 broth microdilution method
Enterobacter cloacae [33] = experiment: Antibacterial activity against ceftazidime-susceptible Enterobacter cloacae assessed as resistant isolates by CLSI M7-A7 broth microdilution method
Streptococcus agalactiae = experiment: Antibacterial activity against erythromycin-nonsusceptible Streptococcus agalactiae by CLSI M7-A7 broth microdilution method
Providencia sp. = experiment: Antibacterial activity against ceftazidime-susceptible Providencia sp. by CLSI M7-A7 broth microdilution method
Enterobacteriaceae [34] = experiment: Antibacterial activity against ceftazidime-nonsusceptible Enterobacteriaceae assessed as resistant isolates by CLSI M7-A7 broth microdilution method
Streptococcus pneumoniae [35] = experiment: Antibacterial activity against penicillin-susceptible Streptococcus pneumoniae assessed as resistant isolates by CLSI M7-A7 broth microdilution method
Streptococcus pneumoniae [36] = experiment: Antibacterial activity against penicillin-susceptible Streptococcus pneumoniae assessed as susceptible isolates by CLSI M7-A7 broth microdilution method
Streptococcus pneumoniae [37] = experiment: Antibacterial activity against penicillin-resistant Streptococcus pneumoniae assessed as resistant isolates by CLSI M7-A7 broth microdilution method
Streptococcus pneumoniae [38] = experiment: Antibacterial activity against penicillin-resistant Streptococcus pneumoniae assessed as susceptible isolates by CLSI M7-A7 broth microdilution method

## CC(C)(O/N=C(\C(=O)N[C@@H]1C(=O)N2C(C(=O)[O-])=C(C[n+]3ccccc3)CS[C@H]12)c1csc(N)n1)C(=O)O [CEFTAZIDIME]
Escherichia coli [1]
  Activity: 87.3%
Moraxella catarrhalis
  Activity: 100%
Pasteurella multocida
  MIC: ≤ 1 µg/mL
  MIC50: ≤ 1 µg/mL
  MIC90: ≤ 1 µg/mL
Enterobacter cloacae [2]
  Activity: 100%
Streptococcus pyogenes [3]
  MIC: ≤ 1 µg/mL
  MIC50: ≤ 1 µg/mL
  MIC90: ≤ 1 µg/mL
Proteus mirabilis [4]
  Activity: 0%
Enterobacter cloacae [5]
  MIC50: > 32 µg/mL
  MIC90: > 32 µg/mL
Staphylococcus aureus [6]
  Activity: 66.2%
Enterobacter cloacae [7]
  Activity: 91.4%
Streptococcus viridans [8]
  MIC: ≤ 1 µg/mL
  MIC50: ≤ 1 µg/mL
  MIC90: 4 µg/mL (≈ 7.32 µM)
Morganella morganii
  MIC50: 0.06 µg/mL (≈ 0.11 µM)
  MIC90: 4 µg/mL (≈ 7.32 µM)
Staphylococcus aureus [9]
  Activity: 11%
Staphylococcus aureus [10]
  Activity: 93.5%
Streptococcus pyogenes [11]
  MIC: ≤ 1 µg/mL
  MIC50: ≤ 1 µg/mL
  MIC90: ≤ 1 µg/mL
Escherichia coli [12]
  MIC50: 0.12 µg/mL (≈ 0.22 µM)
  MIC90: 0.25 µg/mL (≈ 0.457 µM)
Acinetobacter [13]
  Activity: 63.8%
Klebsiella pneumoniae [14]
  Activity: 98.5%
Enterococcus faecium
  MIC: > 32 µg/mL
  MIC50: > 32 µg/mL
  MIC90: > 32 µg/mL
Enterobacteriaceae [15]
  MIC50: > 32 µg/mL
  MIC90: > 32 µg/mL
Staphylococcus aureus [16]
  MIC50: 32 µg/mL (≈ 58.5 µM)
  MIC90: > 32 µg/mL
Staphylococcus aureus [17]
  Activity: 54%
Acinetobacter [18]
  Activity: 31.9%
Enterobacteriaceae [19]
  MIC50: 0.12 µg/mL (≈ 0.22 µM)
  MIC90: 0.5 µg/mL (≈ 0.915 µM)
Klebsiella pneumoniae [20]
  MIC50: 0.12 µg/mL (≈ 0.22 µM)
  MIC90: 0.25 µg/mL (≈ 0.457 µM)
Enterobacter cloacae [21]
  MIC50: 0.25 µg/mL (≈ 0.457 µM)
  MIC90: 1 µg/mL (≈ 1.83 µM)
Escherichia coli [22]
  Activity: 100%
Haemophilus influenzae [23]
  MIC50: 0.06 µg/mL (≈ 0.11 µM)
  MIC90: 0.12 µg/mL (≈ 0.22 µM)
Enterobacteriaceae [24]
  Activity: 100%
Streptococcus viridans [25]
  MIC50: 8 µg/mL (≈ 14.6 µM)
  MIC90: > 32 µg/mL
Proteus mirabilis [26]
  Activity: 100%
Streptococcus pneumoniae [27]
  MIC50: 16 µg/mL (≈ 29.3 µM)
  MIC90: 32 µg/mL (≈ 58.5 µM)
Klebsiella pneumoniae [28]
  Activity: 100%
Escherichia coli [29]
  Activity: 0%
Haemophilus influenzae [30]
  MIC50: 0.06 µg/mL (≈ 0.11 µM)
  MIC90: 0.12 µg/mL (≈ 0.22 µM)
Klebsiella pneumoniae [31]
  MIC50: > 32 µg/mL
  MIC90: > 32 µg/mL
Streptococcus pneumoniae [32]
  MIC: ≤ 1 µg/mL
  MIC50: ≤ 1 µg/mL
  MIC90: ≤ 1 µg/mL
Enterobacter cloacae [33]
  Activity: 0%
Streptococcus agalactiae
  MIC: ≤ 1 µg/mL
  MIC50: ≤ 1 µg/mL
  MIC90: ≤ 1 µg/mL
Providencia sp.
  MIC50: 0.25 µg/mL (≈ 0.457 µM)
  MIC90: 4 µg/mL (≈ 7.32 µM)
Enterobacteriaceae [34]
  Activity: 90%

## C[C@@H](O)[C@H]1C(=O)N2C(C(=O)O)=C(SCCNC=N)C[C@H]12 [IMIPENEM ANHYDROUS]
Escherichia coli [1]
  Activity: 3.2%
Pasteurella multocida
  MIC50: 0.25 µg/mL (≈ 0.835 µM)
  MIC90: 2 µg/mL (≈ 6.68 µM)
Enterobacter cloacae [2]
  Activity: 100%
Streptococcus pyogenes [3]
  MIC: ≤ 0.015 µg/mL
  MIC50: ≤ 0.015 µg/mL
  MIC90: ≤ 0.015 µg/mL
Proteus mirabilis [4]
  Activity: 0%
Enterobacter cloacae [5]
  MIC50: 0.25 µg/mL (≈ 0.835 µM)
  MIC90: 0.25 µg/mL (≈ 0.835 µM)
Staphylococcus aureus [6]
  Activity: 16.4%
Enterobacter cloacae [7]
  Activity: 2.9%
Streptococcus viridans [8]
  MIC: ≤ 0.015 µg/mL
  MIC50: ≤ 0.015 µg/mL
  MIC90: 0.06 µg/mL (≈ 0.2 µM)
Morganella morganii
  MIC50: 2 µg/mL (≈ 6.68 µM)
  MIC90: 2 µg/mL (≈ 6.68 µM)
Staphylococcus aureus [9]
  Activity: 84.6%
Staphylococcus aureus [10]
  Activity: 100%
Streptococcus pyogenes [11]
  MIC: ≤ 0.015 µg/mL
  MIC50: ≤ 0.015 µg/mL
  MIC90: ≤ 0.015 µg/mL
Escherichia coli [12]
  MIC50: 0.12 µg/mL (≈ 0.401 µM)
  MIC90: 0.25 µg/mL (≈ 0.835 µM)
Acinetobacter [13]
  Activity: 100%
Klebsiella pneumoniae [14]
  Activity: 10.6%
Enterococcus faecium
  MIC: > 16 µg/mL
  MIC50: > 16 µg/mL
  MIC90: > 16 µg/mL
Enterobacteriaceae [15]
  MIC50: 0.25 µg/mL (≈ 0.835 µM)
  MIC90: 4 µg/mL (≈ 13.4 µM)
Staphylococcus aureus [16]
  MIC50: 0.25 µg/mL (≈ 0.835 µM)
  MIC90: > 16 µg/mL
Staphylococcus aureus [17]
  Activity: 13.5%
Acinetobacter [18]
  Activity: 0%
Enterobacteriaceae [19]
  MIC50: 0.25 µg/mL (≈ 0.835 µM)
  MIC90: 1 µg/mL (≈ 3.34 µM)
Klebsiella pneumoniae [20]
  MIC: 0.12 µg/mL (≈ 0.401 µM)
  MIC50: 0.12 µg/mL (≈ 0.401 µM)
  MIC90: 0.5 µg/mL (≈ 1.67 µM)
Enterobacter cloacae [21]
  MIC50: 0.5 µg/mL (≈ 1.67 µM)
  MIC90: 0.5 µg/mL (≈ 1.67 µM)
Escherichia coli [22]
  Activity: 100%
Haemophilus influenzae [23]
  MIC50: 0.25 µg/mL (≈ 0.835 µM)
  MIC90: 0.5 µg/mL (≈ 1.67 µM)
Enterobacteriaceae [24]
  Activity: 100%
Streptococcus viridans [25]
  MIC50: 0.06 µg/mL (≈ 0.2 µM)
  MIC90: 1 µg/mL (≈ 3.34 µM)
Streptococcus pneumoniae [35]
  Activity: 0.5%
Proteus mirabilis [26]
  Activity: 100%
Streptococcus pneumoniae [36]
  Activity: 96.5%
Streptococcus pneumoniae [27]
  MIC50: 0.25 µg/mL (≈ 0.835 µM)
  MIC90: 1 µg/mL (≈ 3.34 µM)
Streptococcus pneumoniae [37]
  Activity: 10.8%
Klebsiella pneumoniae [28]
  Activity: 100%
Escherichia coli [29]
  Activity: 96.8%
Haemophilus influenzae [30]
  MIC50: 0.12 µg/mL (≈ 0.401 µM)
  MIC90: 0.5 µg/mL (≈ 1.67 µM)
Klebsiella pneumoniae [31]
  MIC50: 0.12 µg/mL (≈ 0.401 µM)
  MIC90: 16 µg/mL (≈ 53.4 µM)
Streptococcus pneumoniae [32]
  MIC: ≤ 0.015 µg/mL
  MIC50: ≤ 0.015 µg/mL
  MIC90: ≤ 0.015 µg/mL
Enterobacter cloacae [33]
  Activity: 0%
Streptococcus agalactiae
  MIC: ≤ 0.015 µg/mL
  MIC50: ≤ 0.015 µg/mL
  MIC90: 0.03 µg/mL (≈ 0.1 µM)
Streptococcus pneumoniae [38]
  Activity: 12.5%
Providencia sp.
  MIC50: 1 µg/mL (≈ 3.34 µM)
  MIC90: 2 µg/mL (≈ 6.68 µM)
Enterobacteriaceae [34]
  Activity: 4.5%
